Where “and” joins values, the source holds several entries; their conditions need not be identical. Identical values can stand only once. Like-named read-outs stand apart in the source and are kept apart here.
How the values were obtained:
[1] = system: Y. pestis topoisomerase I; format: biochemical; conditions: 10 μM
[2] = molecular target: T1, microphthalmia-associated transcription factor (MITF) (Homo sapiens, UniProt O75030); assay: microphthalmia-associated transcription factor (MITF) activation; format: cell-based; conditions: read-out: Potency (AC40), microphthalmia-associated transcription factor (MITF) activator
T1 sequence (O75030 1-526): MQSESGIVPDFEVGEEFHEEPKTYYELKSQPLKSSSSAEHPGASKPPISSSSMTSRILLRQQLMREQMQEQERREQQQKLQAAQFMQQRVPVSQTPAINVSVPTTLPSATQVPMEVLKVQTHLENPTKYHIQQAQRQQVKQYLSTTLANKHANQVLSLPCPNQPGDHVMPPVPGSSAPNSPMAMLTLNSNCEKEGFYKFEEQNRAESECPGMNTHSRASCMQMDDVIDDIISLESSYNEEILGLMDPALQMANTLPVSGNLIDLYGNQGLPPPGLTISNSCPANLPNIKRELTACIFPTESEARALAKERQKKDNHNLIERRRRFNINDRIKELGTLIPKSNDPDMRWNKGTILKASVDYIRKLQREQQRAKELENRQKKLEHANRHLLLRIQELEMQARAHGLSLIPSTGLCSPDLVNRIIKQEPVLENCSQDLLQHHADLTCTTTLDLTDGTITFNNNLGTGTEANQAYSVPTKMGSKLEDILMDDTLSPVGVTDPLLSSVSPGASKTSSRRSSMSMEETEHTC

fatty acid synthase = fatty acid synthase (Homo sapiens, UniProt P49327); assay: fatty acid synthase inhibition; format: biochemical; conditions: read-out: Potency, fatty acid synthase inhibitor
[3] = Pharmacokinetic profile of JJS-1-166 in mice (plasma, LC-MS); format: in vivo, C57Bl/6j mice; conditions: for bioavailability: relative to the area under the curve for IV administration
Experimental: FIG. 1. Nine C57Bl/6j male mice (2-3 months old). Prior to PK evaluation, 3 animals were dosed with vehicle and were used to identify the standard curve using liquid chromatography-mass spectrometry (LC-MS) and as controls. Animals were randomized into 3 groups (n=3 per group). One group dosed Intravenously (IV), one group orally (PO), and one group subcutaneously (SC) with 10 mg/kg of the compound. […] (The first 4 collections are retro-orbital and the last one is terminal together with collection of the brain. Brain and blood will be flash frozen in liquid nitrogen and kept in −80° C. for later analysis. The concentration of compounds in the blood samples and brain tissues will be measured using LC-MS method.) We determined the blood brain barrier (BBB) permeability and pharmacokinetic (PK) profile of JJS-1-166 (phase I), and subsequently investigated the efficacy of JJS-1-166 in an Alzheimer's disease (AD) mouse model. LC-MS/MS Method Development for Compound JJS-1-166 [table] [table]

[4] = Blood brain barrier permeability / brain concentration and brain clearance of JJS-1-166 in mice; format: in vivo, C57Bl/6j mice; conditions: for brain exposure / concentration at 3 h: mouse; for concentration at 3 h: male, C57Bl/6j, brain, 10 mg/kg
Experimental: FIG. 1. Nine C57Bl/6j male mice (2-3 months old). Prior to PK evaluation, 3 animals were dosed with vehicle and were used to identify the standard curve using liquid chromatography-mass spectrometry (LC-MS) and as controls. Animals were randomized into 3 groups (n=3 per group). One group dosed Intravenously (IV), one group orally (PO), and one group subcutaneously (SC) with 10 mg/kg of the compound. From each animal blood will be collected 5 times: baseline (before the single dose); 5 minute; 30 minute; 1 hour; 3 hour after the single dose of the compound. (The first 4 collections are retro-orbital and the last one is terminal together with collection of the brain. Brain and blood will be flash frozen in liquid nitrogen and kept in −80° C. for later analysis. The concentration of compounds in the blood samples and brain tissues will be measured using LC-MS method.) FIG. 6. 3 day brain clearance study. A C57Bl/6j mouse was treated with 10 mg/kg JJS-1-166. After 3 days, the level of JJS-1-166 in the brain was assessed to ensure that all or a majority of the drug had been cleared. We determined the blood brain barrier (BBB) permeability and pharmacokinetic (PK) profile of JJS-1-166 (phase I), and subsequently investigated the efficacy of JJS-1-166 in an Alzheimer's disease (AD) mouse model. LC-MS/MS Method Development for Compound JJS-1-166 [table] [table]

[5] = as above; format: in vivo, C57Bl/6j mice; conditions: time point 24 h, individual animals
[6] = molecular target: T2, human M1 muscarinic receptor (Homo sapiens, UniProt P11229); assay: human M1 muscarinic receptor antagonist activity; format: cell-based; conditions: 3 μM
T2 sequence (P11229 1-460): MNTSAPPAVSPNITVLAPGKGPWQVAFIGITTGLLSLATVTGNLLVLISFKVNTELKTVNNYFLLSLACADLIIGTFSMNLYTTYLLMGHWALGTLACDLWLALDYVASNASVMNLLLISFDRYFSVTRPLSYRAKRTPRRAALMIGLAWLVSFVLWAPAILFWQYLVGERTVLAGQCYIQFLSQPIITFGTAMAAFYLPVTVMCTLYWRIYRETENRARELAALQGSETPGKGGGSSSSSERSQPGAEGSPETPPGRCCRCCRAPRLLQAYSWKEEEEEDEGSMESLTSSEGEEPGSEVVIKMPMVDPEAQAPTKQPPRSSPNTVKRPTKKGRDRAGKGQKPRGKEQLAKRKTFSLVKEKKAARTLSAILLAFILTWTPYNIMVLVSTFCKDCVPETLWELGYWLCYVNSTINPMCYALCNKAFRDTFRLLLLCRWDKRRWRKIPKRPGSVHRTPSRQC

[7] = molecular target: serotonin 5A receptor (5HTR5A) (Homo sapiens, UniProt P47898); assay: serotonin 5A receptor (5HTR5A) inverse agonist activity; format: cell-based; conditions: 9.3 μM
[8] = molecular target: mycobacterium tuberculosis bioA enzyme (Mycobacterium tuberculosis, UniProt P9WQ81); assay: mycobacterium tuberculosis bioA enzyme inhibition; format: biochemical; conditions: read-out: Potency, mycobacterium tuberculosis bioA enzyme inhibitor
[9] = molecular target: T3, striatal-enriched protein tyrosine phosphatase (STEP) (Homo sapiens, UniProt P54829); assay: striatal-enriched protein tyrosine phosphatase (STEP) inhibition; format: biochemical; conditions: read-out: Potency, striatal-enriched protein tyrosine phosphatase (STEP) inhibitor
T3 sequence (P54829 1-565): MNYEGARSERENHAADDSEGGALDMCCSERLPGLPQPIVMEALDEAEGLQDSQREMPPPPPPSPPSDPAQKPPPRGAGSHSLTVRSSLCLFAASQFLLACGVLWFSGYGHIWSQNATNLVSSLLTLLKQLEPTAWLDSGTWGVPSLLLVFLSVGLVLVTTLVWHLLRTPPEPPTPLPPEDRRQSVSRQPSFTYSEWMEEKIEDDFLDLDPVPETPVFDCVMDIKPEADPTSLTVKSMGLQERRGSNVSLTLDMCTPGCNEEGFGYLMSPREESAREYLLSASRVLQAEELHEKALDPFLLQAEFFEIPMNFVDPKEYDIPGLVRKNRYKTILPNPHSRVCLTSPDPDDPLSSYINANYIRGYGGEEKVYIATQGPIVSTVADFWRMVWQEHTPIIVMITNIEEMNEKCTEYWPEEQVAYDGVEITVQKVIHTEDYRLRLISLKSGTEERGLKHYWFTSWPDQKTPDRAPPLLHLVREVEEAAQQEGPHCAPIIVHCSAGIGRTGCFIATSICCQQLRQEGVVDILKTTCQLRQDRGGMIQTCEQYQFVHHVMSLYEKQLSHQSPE

[10] = time point 3 h, individual animals
[11] = time point 72 h, individual animals

Chain of serotonin 5A receptor (5HTR5A) (P47898 whole entry): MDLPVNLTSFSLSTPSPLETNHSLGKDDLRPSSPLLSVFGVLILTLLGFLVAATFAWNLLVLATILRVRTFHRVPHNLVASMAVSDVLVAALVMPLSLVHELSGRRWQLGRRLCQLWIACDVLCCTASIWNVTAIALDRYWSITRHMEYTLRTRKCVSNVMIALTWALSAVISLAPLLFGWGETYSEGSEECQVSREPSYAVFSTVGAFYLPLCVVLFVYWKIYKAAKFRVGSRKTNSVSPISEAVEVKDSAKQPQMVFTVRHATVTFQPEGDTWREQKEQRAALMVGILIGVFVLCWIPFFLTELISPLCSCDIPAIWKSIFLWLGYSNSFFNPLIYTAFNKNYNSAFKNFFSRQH
Chain of mycobacterium tuberculosis bioA enzyme (P9WQ81 whole entry): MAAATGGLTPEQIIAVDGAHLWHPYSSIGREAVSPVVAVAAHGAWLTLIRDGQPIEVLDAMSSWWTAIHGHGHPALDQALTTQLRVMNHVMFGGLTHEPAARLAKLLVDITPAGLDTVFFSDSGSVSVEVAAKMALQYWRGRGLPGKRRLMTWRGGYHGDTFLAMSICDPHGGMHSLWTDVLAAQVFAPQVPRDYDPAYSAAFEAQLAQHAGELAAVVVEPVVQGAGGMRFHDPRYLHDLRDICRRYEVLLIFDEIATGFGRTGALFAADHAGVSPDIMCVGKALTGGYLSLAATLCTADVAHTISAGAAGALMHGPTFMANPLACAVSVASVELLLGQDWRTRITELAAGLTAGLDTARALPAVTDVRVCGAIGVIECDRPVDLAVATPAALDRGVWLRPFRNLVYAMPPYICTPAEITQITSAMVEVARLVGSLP
Chain of fatty acid synthase (P49327 whole entry): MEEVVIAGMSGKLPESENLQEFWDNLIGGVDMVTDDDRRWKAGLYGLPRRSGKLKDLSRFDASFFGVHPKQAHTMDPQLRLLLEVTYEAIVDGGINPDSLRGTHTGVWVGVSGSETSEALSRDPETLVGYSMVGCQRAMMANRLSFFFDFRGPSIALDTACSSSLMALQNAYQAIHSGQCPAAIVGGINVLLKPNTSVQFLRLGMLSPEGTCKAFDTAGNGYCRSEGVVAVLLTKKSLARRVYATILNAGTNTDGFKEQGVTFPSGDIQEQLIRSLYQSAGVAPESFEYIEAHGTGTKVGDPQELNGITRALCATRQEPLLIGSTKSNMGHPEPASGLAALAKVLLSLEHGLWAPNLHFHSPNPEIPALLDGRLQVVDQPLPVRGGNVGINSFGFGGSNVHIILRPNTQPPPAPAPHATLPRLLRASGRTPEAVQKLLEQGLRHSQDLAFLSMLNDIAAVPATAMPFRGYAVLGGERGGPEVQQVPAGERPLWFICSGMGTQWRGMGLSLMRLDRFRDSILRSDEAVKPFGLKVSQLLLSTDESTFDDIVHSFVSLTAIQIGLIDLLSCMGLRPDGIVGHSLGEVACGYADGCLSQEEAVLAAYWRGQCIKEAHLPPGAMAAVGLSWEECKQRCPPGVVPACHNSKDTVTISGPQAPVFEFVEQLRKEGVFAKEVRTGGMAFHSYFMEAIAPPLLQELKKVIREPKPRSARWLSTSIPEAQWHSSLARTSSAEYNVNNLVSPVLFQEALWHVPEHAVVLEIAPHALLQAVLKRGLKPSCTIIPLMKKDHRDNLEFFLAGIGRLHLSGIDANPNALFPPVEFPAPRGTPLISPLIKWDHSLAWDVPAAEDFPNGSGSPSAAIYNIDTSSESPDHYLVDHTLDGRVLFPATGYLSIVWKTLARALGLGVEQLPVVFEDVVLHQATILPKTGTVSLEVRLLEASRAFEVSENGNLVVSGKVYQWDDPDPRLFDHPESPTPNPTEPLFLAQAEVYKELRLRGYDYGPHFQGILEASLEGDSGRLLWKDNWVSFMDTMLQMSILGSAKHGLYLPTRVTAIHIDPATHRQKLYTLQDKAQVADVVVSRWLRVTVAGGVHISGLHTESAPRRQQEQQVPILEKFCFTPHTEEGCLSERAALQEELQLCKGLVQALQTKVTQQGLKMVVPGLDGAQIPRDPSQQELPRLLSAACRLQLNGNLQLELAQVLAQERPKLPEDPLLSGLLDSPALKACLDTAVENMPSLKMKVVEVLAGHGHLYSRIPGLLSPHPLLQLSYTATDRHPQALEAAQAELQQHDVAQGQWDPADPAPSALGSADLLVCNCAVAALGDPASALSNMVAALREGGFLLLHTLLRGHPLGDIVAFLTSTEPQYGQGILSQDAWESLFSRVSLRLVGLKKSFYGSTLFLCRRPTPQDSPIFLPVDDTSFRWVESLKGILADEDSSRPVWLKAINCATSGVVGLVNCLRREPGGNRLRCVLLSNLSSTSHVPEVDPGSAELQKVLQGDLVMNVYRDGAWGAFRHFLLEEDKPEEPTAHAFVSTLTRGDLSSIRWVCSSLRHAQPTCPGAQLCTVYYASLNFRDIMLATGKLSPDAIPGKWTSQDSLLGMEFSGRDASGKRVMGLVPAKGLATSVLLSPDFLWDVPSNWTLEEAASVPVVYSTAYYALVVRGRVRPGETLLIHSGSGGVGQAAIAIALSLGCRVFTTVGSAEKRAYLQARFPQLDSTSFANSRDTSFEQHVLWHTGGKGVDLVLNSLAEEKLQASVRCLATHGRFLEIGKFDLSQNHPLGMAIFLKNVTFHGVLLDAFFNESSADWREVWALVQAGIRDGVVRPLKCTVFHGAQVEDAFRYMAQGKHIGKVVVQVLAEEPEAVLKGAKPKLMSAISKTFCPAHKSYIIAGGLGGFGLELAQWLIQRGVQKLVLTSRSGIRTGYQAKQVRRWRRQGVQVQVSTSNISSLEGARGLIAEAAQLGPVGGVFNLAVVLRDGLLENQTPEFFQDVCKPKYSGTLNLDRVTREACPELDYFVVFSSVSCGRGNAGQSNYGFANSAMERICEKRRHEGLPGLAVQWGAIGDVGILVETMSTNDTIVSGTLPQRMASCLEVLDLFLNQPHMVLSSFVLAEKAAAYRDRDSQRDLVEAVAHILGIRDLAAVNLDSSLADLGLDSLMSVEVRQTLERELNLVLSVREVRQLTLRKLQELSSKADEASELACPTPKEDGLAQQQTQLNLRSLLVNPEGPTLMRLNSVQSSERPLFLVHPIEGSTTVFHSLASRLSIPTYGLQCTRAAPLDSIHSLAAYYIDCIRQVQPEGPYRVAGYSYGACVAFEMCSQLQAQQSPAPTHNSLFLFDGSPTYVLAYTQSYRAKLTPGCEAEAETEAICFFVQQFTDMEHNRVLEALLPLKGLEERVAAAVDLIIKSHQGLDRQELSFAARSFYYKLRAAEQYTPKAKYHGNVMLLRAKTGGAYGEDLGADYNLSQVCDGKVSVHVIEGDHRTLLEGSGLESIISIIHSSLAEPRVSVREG

**Q.** With `O=C(OCc1ccccc1)N1CC[C@@H]2C[C@H]1c1c(Cl)cccc12` as the molecule, how does the “Potency, Y. pestis topoisomerase I inhibitor” value [1] read?
**A.** 61% (10 μM)

**Q.** With `CCCCNc1ccc2c(c1)[C@@H]1C[C@H]2CCN1C(=O)OCc1ccccc1` as the molecule, how does the EC40 [2] read?
**A.** 3.3 µM

**Q.** Which melting point does the source give for `FC(F)(F)c1ccc(-c2ccc3c(c2)[C@@H]2C[C@H]3CCN2Cc2ccccc2)cc1` (stereo in doubt) [21{2,7}, 2-Benzyl-8-(4-(trifluoromethyl)phenyl)-2,3,4,5-tetrahydro-1H-1,5-methanobenzo[c]azepine] here?
**A.** 101 to 103 °C

**Q.** For `COc1ccc(NC(=S)N2CCN(c3ccc4c(c3)[C@@H]3CCN(C(=O)OCc5ccccc5)[C@H]4C3)CC2)c(OC)c1`, which inhibition at 15 µM (fatty acid synthase) is on record?
**A.** 57%

**Q.** What does the source list for `CN1CCN(c2ccc3c(c2)[C@H]2CC3CCN2C(=O)OCc2ccccc2)CC1` [JJS-1-166]?
**A.** concentration at 24 h ([3]; C57Bl/6j, mouse, plasma, time point 24 h, individual animals, read-out: Drug concentration in the Plasma): 0.14 ng/g; plasma concentration (Cmax) ([3]; SC administration, 10 mg/kg, at 1 hour, mouse): greater than 300 ng/dL; time for which detectable plasma levels were maintained ([3]; after SC, OP, and IV administration, mouse): greater than 150 minutes; plasma concentration (Cmax) ([3]; intravenous (IV) administration, 10 mg/kg, at 5 minutes, mouse): greater than 1500 ng/dL; concentration at 3 h ([3]; male, C57Bl/6j, mouse, plasma, 10 mg/kg, time point 3 h, individual animals, read-out: Drug concentration in the Plasma): 156 ng/g; bioavailability ([3]; male, C57Bl/6j, plasma, oral, 10 mg/kg, mouse, read-out: OP bioavailability): 7%; bioavailability ([3]; male, C57Bl/6j, plasma, subcutaneous, 10 mg/kg, mouse, read-out: SC bioavailability): 45%; pharmacokinetic properties ([3]; mouse, overall statement): acceptable; plasma concentration (Cmax) ([3]; oral (PO) administration, 10 mg/kg, at 30 min, mouse): greater than 60 ng/dL; Drug concentration in the Plasma [3, 10]: 136.0 ng/g and 209.0 ng/g; Drug concentration in the Plasma ([3]; time point 24 h, individual animals): 0.163 ng/g and 0.0913 ng/g; Drug concentration in the Plasma [3, 11]: No Peak; brain exposure ([4]; SC administration, 3 hours): high level of brain exposure; concentration at 3 h ([4]; time point 3 h, individual animals, read-out: Drug concentration in the Brain): 1570 ng/g; concentration at 3 h ([4]; sc, 3 hours after subcutaneous (SC) administration, read-out: brain concentration): 15 ng/mL; brain exposure ([4]; overall statement): adequate brain exposure; Drug concentration in the Brain [4, 10]: 1100.0 ng/g and 1840.0 ng/g; Drug concentration in the Brain [4, 11]: No Peak; concentration at 24 h ([5]; C57Bl/6j, mouse, brain, 10 mg/kg, read-out: Drug concentration in the Brain): 1.76 ng/g; Drug concentration in the Brain [5]: 1.63 ng/g and 1.28 ng/g

**Q.** For `COc1ccc(S(=O)(=O)N2CC[C@@H]3C[C@H]2c2cc(N4CCOCC4)ccc23)cc1` (stereo in doubt) [30{2,2,30}, 4-(2-((4-Methoxyphenyl)sulfonyl)-2,3,4,5-tetrahydro-1H-1,5-methanobenzo[c]azepin-8-yl)morpholine], which melting point is on record?
**A.** 176 to 177 °C

**Q.** Which “Potency, human M1 muscarinic receptor antagonist” value [6] does the source give for `O=C(c1cc(Cl)cc(Cl)c1)N1CC[C@@H]2C[C@H]1c1cc(N3CCCCC3)ccc12` here?
**A.** 69% (3 μM)

**Q.** For `Clc1cccc(CN2CC[C@@H]3C[C@H]2c2cc(N4CCCCC4)ccc23)c1`, which “Potency, serotonin 5A receptor (5HTR5A) inverse agonist” value [7] is on record?
**A.** 27% (9.3 μM)

**Q.** With `COc1ccc(-c2ccc3c(c2)[C@@H]2C[C@H]3CCN2)cc1` as the molecule, how does the inhibition at 10 µM [8] read?
**A.** 91%

**Q.** With `N#Cc1ccc(C(=O)N2CC[C@@H]3C[C@H]2c2cc(-c4ccccc4)ccc23)cc1` as the molecule, how does the inhibition at 20 µM [9] read?
**A.** 69%
